Data published in patent US20230226047A1, “COMBINATION THERAPY FOR TREATMENT OF CANCERS” (Health Research, Inc., priority 2019, published 2023).
“Also recorded” adds a separate entry of the source.

What was measured:
C42 cells = assay: Flow cytometry of MHC expression after MCTP-39 and IFNg treatment, human C42 cells; format: cell-based; conditions: combined treatment with MCTP-39 and IFNg, FIG. 7A
Method: (§1) Cell proliferation: Knock down of WHSC1 in C4-2 and TRAMP C-2 cells is discussed in previous sections. Cells were counted at 48, 96 and 144 hours. For pharmacological inhibition, cells either C4-2 or TRAMP C2 were seeded overnight at 4×10^3 cells per 100 μl media in a 96 well plate, the following day cells were treated with vehicle control or different concentrations of MCTP-39 (0-10 μM) for 48 hours. After 48 hours, C4-2 or TRAMP C-2 cells were either counted or used for staining with MHCI/II antibodies. Briefly cells were detached using trypsin and washed with FACS buffer for 5 minutes at 300 g. The pellet was resuspended in FACS buffer and stained with MHC-I/II antibodies for 20 minutes at 4 C. After incubation, cells were washed with FACS buffer 2× and resuspended in 200 μl of FACS buffer before acquiring the data on a flow cytometer.

TRAMP C2 cells = assay: Flow cytometry of MHC expression after MCTP-39 and IFNg treatment, murine TRAMP C2 cells; format: cell-based; conditions: combined treatment with MCTP-39 and IFNg, FIG. 7B
Method: as §1

[1] = system: OVA-overexpressing TRAMP C2 cells; assay: Flow cytometry of antigen-bound MHC (OVA-bound H2Kb); format: cell-based, murine; conditions: 48 hours, FIG. 7C-D
Description: OVA overexpression: Soluble ovalbumin (OVA) gene, which was amplified from pCI-neo-sOVA (Addgene plasmid 25098), and monomeric enhanced green fluorescent protein (mEGFP) gene, which was amplified from mEGFP-N1 (Addgene plasmid 54767), were genetically fused via P2A translational skipping sequence and cloned in the Sleeping Beauty transposon plasmid with the human elongation factor 1α promoter. This plasmid, pT2-EF-OVA-mEGFP, was electroporated together with the Sleeping Beauty Transposase plasmid, pCMV(CAT)T7-SB100 (a gift from Zsuzsanna Izsvak; Addgene plasmid #34879), into TRAMP-C2 by Nucleofector 4D instrument. The electroporated cells were kept in maintenance medium (DMEM supplemented with 10% FBS, 0.005 mg/ml bovine insulin, 1 nM DHT and cell sorted based on mGFP expression using FACS Aria I cell sorter. The expression of OVA on sorted cells were confirmed by western blotting using rabbit polyclonal OVA antibody (ab186717) at 1:4000 dilution and flow cytometry using PE anti-mouse H-2K^b bound to SIINFEKL (BioLegend) before incubating with or without MCTP-39 for 48 hours. The expression of OVA was analyzed after 48 hours by flow cytometry using BDLSRIIA cytometer and data was analyzed by FCS express 7 Research Edition.

[2] = system: TRAMP C2 cells grafted in C57B/6 mice; assay: TRAMP C2 subcutaneous graft in immunocompetent C57B/6 mice; format: in vivo, mouse
Method: (§2) Immunotherapy in prostate cancer (PCa) lags behind the progresses obtained in other cancer types partially because of its limited immune infiltration. While a few studies reported increased homing of immune cells in response to androgen deprivation therapy (ADT), the mechanism by which this occurs is still poorly understood. Using TCGA PCa RNASeq data patients were divided into top/bottom 30% based on the expression of WHSC1 and DFS was calculated for both groups. Publicly available ChIPSeq data were obtained from Cistrome and integrated with the available RNASeq data. RNASeq, ATACSeq and EPIC Infinium MethylArrays were analyzed using R Bioconductor packages comparing C42 cells with or without stable knockdown on WHSC1. Flow cytometry was used to measure MHC levels, MHC-bound OVA and tumor infiltration. C57B6 and NSG mice were subcutaneously grafted with TRAMP C2 cells and treated with MCTP39 (10 mg/kg); tumor size was monitored over time and curves compared using permutation analyses. All analyses use a significance threshold of 0.05.
Mice and in vivo experiments: Male C57B/6J mice (6-8 weeks of age) and NSG mice (10-12 weeks of age) were obtained from the Roswell Park's Center For Immunotherapy breeding colonies. All in vivo experiments were made following institutional and IACUC regulations. In vivo experiments were not blinded. C2 cells (1×10^6 cells/100 μl) were injected subcutaneously into the right flank of male C57BL/6J mice (n=6/group) or NSG mice (n=5/group) using a 27 G needle. Sample size was chosen based on pilot studies and chosen to include the potential loss of mice prior treatment. Tumor volume was monitored weekly with an electronic caliper and calculated as V=(W^2×L)/2, where Vis tumor volume, W is tumor width and L is tumor length. When tumors reached 100 mm^3, mice were randomized prior treatment with either MCTP-39 (10 mg/kg 5×/week/4 weeks) or vehicle control. Mice were euthanized either when tumors reached […] in any dimension, as per Institutional IACUC regulations, when mice show signs of advanced disease or after 4 weeks of treatment. Tumors were harvested and weighted, single cells suspension was prepared using the Tumor dissociation kit (Miltenyi Biotech) as per manufacturing instructions prior flow cytometry analysis.
Flow cytometry and antibodies: Single cell suspension from tumors was stained the antibodies listed in Table S3 (FIG. 14) for 20 min at 4° C. After staining, cells were washed and fixed with fixation buffer for 15 min at 4° C. followed by washing 2× with FACS buffer. Cells were resuspended in 200 μl of FACS buffer before acquiring data on BDLSR IIA flow cytometer. Data were analyzed using FCS express 7 Research Edition.
Statistical methods: Survival analysis was performed dividing patients based on the upper/lower 25% of the expression levels of WHSC1, significance, HR and confidence intervals were calculated using cox proportional hazard model available in the R package survival. […] Significance for the AUC analysis was calculated by simulating 10,000 AUCs using randomly selected genes in the RNASeq dataset. The empirical p value was calculated by dividing the number of expected/simulated AUCs higher than our observed value by 10,000 (number of simulations). Significance when comparing two groups was calculated via two-tailed Student's t.test at a significance threshold of 0.05. […]

[3] = system: TRAMP C2 cells grafted in NSG mice; assay: TRAMP C2 subcutaneous graft in immunocompromised NSG mice; format: in vivo, mouse; conditions: 10 mg/kg, four weeks, p=0.1461, permutation test, FIG. 8B
Method: as §2
Mice and in vivo experiments: Male C57B/6J mice (6-8 weeks of age) and NSG mice (10-12 weeks of age) were obtained from the Roswell Park's Center For Immunotherapy breeding colonies. […] Tumor volume was monitored weekly with an electronic caliper and calculated as V=(W^2×L)/2, where Vis tumor volume, W is tumor width and L is tumor length. […]

[4] = C57B/6 mice, tumors at endpoint, flow cytometry, FIG. 8C

NNc1nc2ccccc2[nH]c1=S [MCTP39]
upregulating HLA-B7, HLA-F, HLA-E, HLA-DQ, HLA-DM (C42 cells): additive effect
upregulating murine H2Kb I-A/I-E (TRAMP C2 cells): additive effect
OVA-bound H2Kb fraction [1]: increased
Tumor growth ([2]; C57B/6 mice, 10 mg/kg IP for four weeks, p=0.0023, permutation test, FIG. 8A, 10 mg/kg): significantly reduced
Tumor weight ([2]; C57B/6 mice, at endpoint, FIG. 8C): reduced
CD8+ T cells infiltration [2, 4]: increased
H2Kb (MHC) expression on the tumor [2, 4]: increased
intratumoral CD8+PD1+ T cells ([2]; preliminary in vivo data): may increase
Tumor growth [3]: limited and non-significant effect; also recorded: Not Significant; also recorded: not observed
